Source: ChEMBL document CHEMBL1144745, “Alkyne-quinuclidine derivatives as potent and selective muscarinic antagonists for the treatment of COPD” (Bioorg Med Chem Lett, 2008)
Calls of active or inactive are those of the source. The calls are words filed in the database; no cut-off is given here.

Columns and labels:
[1] = target: T1, Muscarinic acetylcholine receptor M2 (Homo sapiens, UniProt P08172); experiment: Displacement of [3H]N-methylscopolamine from human recombinant muscarinic M2 receptor expressed in CHO cells; format: cell-based
T1 sequence (P08172 whole entry): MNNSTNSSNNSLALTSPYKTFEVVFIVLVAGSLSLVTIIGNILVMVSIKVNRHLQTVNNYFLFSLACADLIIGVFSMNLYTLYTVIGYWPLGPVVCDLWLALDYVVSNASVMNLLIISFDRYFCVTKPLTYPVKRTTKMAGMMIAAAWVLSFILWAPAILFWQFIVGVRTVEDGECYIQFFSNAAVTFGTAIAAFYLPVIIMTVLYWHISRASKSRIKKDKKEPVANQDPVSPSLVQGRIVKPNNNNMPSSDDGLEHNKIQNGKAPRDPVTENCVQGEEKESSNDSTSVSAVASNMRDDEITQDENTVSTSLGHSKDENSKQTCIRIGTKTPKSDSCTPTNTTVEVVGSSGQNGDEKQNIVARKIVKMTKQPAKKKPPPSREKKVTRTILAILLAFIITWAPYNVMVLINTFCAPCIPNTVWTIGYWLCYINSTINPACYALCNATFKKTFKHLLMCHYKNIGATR

[2] = target: Muscarinic acetylcholine receptor M3 (Homo sapiens, UniProt P20309); experiment: Displacement of [3H]N-methylscopolamine from human recombinant muscarinic M3 receptor expressed in CHO cells; format: cell-based
Cavia porcellus = species on record: Cavia porcellus; experiment: (§1) Antagonist activity at muscarinic M2 receptor in carbachol-stimulated guinea pig left atrium; format: functional, tissue-based; settings: Cardiac atrium
[3] = target: Muscarinic acetylcholine receptor M3 (Cavia porcellus) (UniProt Q8VH26); experiment: Reversible inhibition of muscarinic M3 receptor in electrically-stimulated guinea pig trachea assessed as recovery of maximal effect at >280 min; format: tissue-based; design: scale not given: the % may be the effect or the level left
[4] = as §1; format: functional, tissue-based; settings: Cavia porcellus, Cardiac atrium; read-out: pA2 (converted)
[5] = target: Muscarinic acetylcholine receptor M3 (Cavia porcellus, UniProt Q8VH26); experiment: Antagonist activity at muscarinic M3 receptor in carbachol-stimulated guinea pig trachea; format: functional; settings: read-out: pA2 (converted)
Sequence of Muscarinic acetylcholine receptor M3 (Cavia porcellus, UniProt Q8VH26) (Q8VH26 whole entry): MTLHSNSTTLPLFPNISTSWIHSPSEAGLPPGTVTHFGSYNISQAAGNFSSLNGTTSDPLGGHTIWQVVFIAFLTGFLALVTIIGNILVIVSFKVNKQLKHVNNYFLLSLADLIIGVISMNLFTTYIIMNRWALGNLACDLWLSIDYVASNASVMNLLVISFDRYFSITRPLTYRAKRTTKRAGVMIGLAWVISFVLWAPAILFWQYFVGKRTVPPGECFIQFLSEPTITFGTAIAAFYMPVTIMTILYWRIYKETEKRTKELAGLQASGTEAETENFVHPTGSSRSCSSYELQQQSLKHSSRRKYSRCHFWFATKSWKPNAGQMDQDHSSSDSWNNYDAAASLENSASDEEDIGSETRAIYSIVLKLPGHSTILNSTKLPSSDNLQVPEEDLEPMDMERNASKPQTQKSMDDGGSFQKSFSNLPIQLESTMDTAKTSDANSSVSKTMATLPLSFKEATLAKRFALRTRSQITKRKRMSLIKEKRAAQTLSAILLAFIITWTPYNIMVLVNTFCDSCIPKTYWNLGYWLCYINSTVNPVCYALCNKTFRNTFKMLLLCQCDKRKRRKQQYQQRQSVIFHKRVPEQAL

Sequence of Muscarinic acetylcholine receptor M3 (Homo sapiens, UniProt P20309) (P20309 whole entry): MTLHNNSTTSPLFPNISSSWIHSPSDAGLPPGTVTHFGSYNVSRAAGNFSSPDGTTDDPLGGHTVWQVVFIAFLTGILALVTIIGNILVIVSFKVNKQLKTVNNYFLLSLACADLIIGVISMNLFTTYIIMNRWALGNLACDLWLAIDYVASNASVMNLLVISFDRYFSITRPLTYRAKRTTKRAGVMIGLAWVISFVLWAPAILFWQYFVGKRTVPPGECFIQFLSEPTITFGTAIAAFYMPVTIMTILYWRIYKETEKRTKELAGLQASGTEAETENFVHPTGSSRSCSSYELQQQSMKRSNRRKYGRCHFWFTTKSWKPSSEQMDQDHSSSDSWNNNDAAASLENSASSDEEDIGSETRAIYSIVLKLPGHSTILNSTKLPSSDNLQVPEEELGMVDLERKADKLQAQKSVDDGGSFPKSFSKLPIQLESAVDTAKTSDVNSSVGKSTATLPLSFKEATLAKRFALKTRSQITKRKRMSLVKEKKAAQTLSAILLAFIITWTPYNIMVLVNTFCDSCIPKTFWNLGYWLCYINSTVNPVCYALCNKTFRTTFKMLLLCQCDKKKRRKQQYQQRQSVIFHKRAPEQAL
Sequence of Muscarinic acetylcholine receptor M3 (Cavia porcellus) (Q8VH26 1-587): as the sequence (Q8VH26 whole entry) above

With `CO[C@]1(C#C[C@@](O)(c2ccccc2)C2CCCCCCC2)CN2CCC1CC2` the Ki [1] was 31.6 nM, the Ki [2] was 2.51 nM and the Activity (Cavia porcellus) was “Active”.
Work on `CO[C@]1(C#C[C@](O)(c2ccccc2)C2CCCCCC2)CN2CCC1CC2` yielded a Ki [1] of 2.51 nM, a Ki [2] of 0.316 nM and an Activity [3] of 20%. It also gave a Kb [4] of 5.01 nM and a Kb [5] of 6.31 nM.
In the case of `CO[C@]1(C#C[C@@](O)(c2ccccc2)C2CCCCC2)CN2CCC1CC2`, the Activity (Cavia porcellus) is reported as “Active”.
With `CO[C@]1(C#C[C@](O)(c2ccccc2)C2CCCCC2)CN2CCC1CC2` the Activity (Cavia porcellus) was “Active”.
In the case of `C[N+]1(C)[C@@H]2C[C@@H](OC(=O)C(O)(c3cccs3)c3cccs3)C[C@H]1[C@@H]1O[C@@H]12`, the Activity (Cavia porcellus) is reported as “Active”.
With `CO[C@]1(C#CC(O)(c2ccccc2)c2ccccc2)CN2CCC1CC2` the Activity (Cavia porcellus) was “Active”.
In the case of `COC1(C#CC(C)(c2ccccc2)c2ccccc2)CN2CCC1CC2` (stereo not given), the Ki [1] is reported as 39.8 nM, the Ki [2] is reported as 15.8 nM and the Activity (Cavia porcellus) is reported as “Active”.
For `COC1(C#CC(C#N)(c2ccccc2)c2ccccc2)CN2CCC1CC2` (stereo not given), the Ki [1] was 6.31 nM, the Ki [2] was 2.51 nM and the Activity (Cavia porcellus) was “Active”.
With `CC(C)[N+]1(C)C2CCC1CC(OC(=O)[C@H](CO)c1ccccc1)C2` (stereo not given in full) the Activity (Cavia porcellus) was “Active”.
For `COC(C#C[C@@]1(OC)CN2CCC1CC2)(c1ccccc1)c1ccccc1`, the Ki [1] was 158 nM, the Ki [2] was 10 nM and the Activity (Cavia porcellus) was “Active”.
Work on `CO[C@]1(C#C[C@](O)(c2ccccc2)C2CCCCCCC2)CN2CCC1CC2` yielded a Ki [1] of 3.16 nM, a Ki [2] of 0.316 nM and an Activity [3] of 20%. For the same molecule, the Kb [4] was 31.6 nM and the Kb [5] was 6.31 nM.
In the case of `CO[C@]1(C#C[C@@](O)(c2ccccc2)C2CCCCCC2)CN2CCC1CC2`, the Ki [1] is reported as 20 nM, the Ki [2] is reported as 2 nM and the Activity (Cavia porcellus) is reported as “Active”.
